Drawing on patent US20220267300A1 (NodThera Limited, priority 2019, published 2022), this text covers IC50 for 22 compounds.

For orientation: IC50 means the point on the concentration scale where inhibition reaches its midpoint.

The test concerns IL-1β release upon NLRP3 activation in peripheral blood mononuclear cells (PBMC). The test can be described thus: PBMC IC50 determination assay (inhibition of IL-1β release). The settings on record: Homo sapiens; IL-1β release from LPS-primed PBMC stimulated with ATP (5 mM) or nigericin (10 μM); ELISA or HTRF; corresponding sodium salts evaluated. The class given is cell-based. The protocol: The compounds of the present disclosure were tested for their inhibitory activity against IL-1β release upon NLRP3 activation in peripheral blood mononuclear cells (PBMC).
Protocol A. PBMC were isolated from buffy coats by density gradient centrifugation on Histopaque-1077 (Sigma, cat no. 10771). Isolated cells were seeded into the wells of a 96-well plate and incubated for 3 h with lipopolysaccharide (LPS). Following medium exchange, the compounds of the present disclosure were added (a single compound per well) and the cells were incubated for 30 min. Next, the cells were stimulated either with ATP (5 mM) or nigericin (10 μM) for 1 h and the cell culture media from the wells were collected for further analysis.
The release of IL-1β into the media was determined by a quantitative detection of IL-1β in the media using an IL-1β enzyme-linked immunosorbent assay (ELISA) Ready-SET-Go!, eBioscience cat. No. 88-7261-88. Briefly, in a first step, high affinity binding plates (Corning, Costar 9018 or NUNC Maxisorp Cat No. 44-2404) were coated overnight at 4° C. with specific capture antibody included in the kit (anti-human IL-1β ref. 14-7018-68). Subsequently, plates were blocked with blocking buffer for 1 h at room temperature (rt) and after washing with a buffer (PBS with 0.05% Tween-20) incubated with protein standard and culture media. After 2 h of incubation at rt, plates were washed and incubated with biotinylated detection antibody included in the kit (anti-human IL-1β Biotin ref. 33-7110-68) for 1 h at rt. Plates were washed and incubated with HRP-streptavidin for 30 min at rt and washed again. The signal was developed after addition of 3,3′,5,5′-tetramethylbenzidine-peroxidase (TMB) until colour appeared and the reaction was stopped by 2 M H2SO4. A microplate spectrophotometer (BioTek) was used to detect signals with 450 nm. The detection range of IL-1β ELISA was 2-150 ng/ml.
Protocol B. PBMC were isolated from buffy coats by density gradient centrifugation on Histopaque-1077 (Sigma, cat no. 10771). Isolated cells were seeded into the wells (280,000 cells/well) of a 96-well plate and incubated for 3 h with lipopolysaccharide (LPS, 1 μg/ml diluted 1000× from a 1 mg/ml stock solution). The compounds of the present disclosure were added (a single compound per well) and the cells were incubated for 30 min. Next, the cells were stimulated with ATP (5 mM final concentration diluted 20× from a 100 mM stock solution) for 1 h and the cell culture media from the wells were collected for further analysis.
The release of IL-1β into the media was determined by quantitative detection of IL-1β in the media using HTRF®, CisBio cat. No. 62HIL1BPEH. Briefly, cell culture supernatant were dispensed directly into the assay plate containing antibodies labelled with the HTRF® donor and acceptor. A microplate spectrophotometer (BMG) was used to detect signals at 655 nm and 620 nm. The detection range of IL-1β HTRF® was 39-6500 pg/ml.
(In general: An ELISA detects its analyte on a solid surface through an enzyme-linked reagent.)
As to `CC(=O)N(C)CCN(c1cnn(C)c1)S(=O)(=O)NC(=O)Cc1c2c(cc3c1CCC3)CCC2` [Example 26, 2-(1,2,3,5,6,7-Hexahydro-s-indacen-4-yl)-N-[(1-methyl-1H-pyrazol-4-yl)[2-(N-methylacetamido)ethyl]sulfamoyl]acetamide], the IC50 was in the range of 3 to 10 µM. In the case of `Cn1cc(N(CCCNC(=O)OCc2ccccc2)S(=O)(=O)NC(=O)Cc2c3c(cc4c2CCC4)CCC3)cn1` [Example 27, Benzyl N-[3-[[2-(1,2,3,5,6,7-hexahydro-s-indacen-4-yl)acetyl]sulfamoyl-(1-methylpyrazol-4-yl)amino]propyl]carbamate] it was 1 to 3 µM. On to `COc1cc(-c2cc(F)cc(C(C)C)c2CC(=O)NS(=O)(=O)N(c2cnn(C)c2)C2CCCN(C)C2)ccn1` (stereo not shown) [Example 28, 2-[4-Fluoro-2-isopropyl-6-(2-methoxy-4-pyridyl)phenyl]-N-[(1-methyl-3-piperidyl)-(1-methylpyrazol-4-yl)sulfamoyl]acetamide], for which the half-maximal inhibitory concentration (IC50) lay in the range of 3 to 10 µM. Consider `CN1CCC(N(c2cnn(C)c2)S(=O)(=O)NC(=O)Cc2c3c(cc4c2CC4)CC3)CC1` [Example 29, N-[(1-methyl-4-piperidyl)-(1-methylpyrazol-4-yl)sulfamoyl]-2-(2-tricyclo[6.2.0.03,6]deca-1(8),2,6-trienyl)acetamide], for which the IC50 lay in the range of 1 to 3 µM. In the case of `CC(C)c1cc(F)cc(C(C)C)c1CC(=O)NS(=O)(=O)N(c1cnn(C)c1)C1CCOCC1` [Example 30] it was at least 50 µM. Consider `CC(C)c1cc(F)cc(C(C)C)c1CC(=O)NS(=O)(=O)N(c1cnn(C)c1)C1CCN(C)CC1` [Example 31], for which the IC50 is at least 50 µM. To `Cc1cc(C)cc(CC(=O)NS(=O)(=O)N(c2cnn(C)c2)C2CCCN(C)C2)c1` (stereo not shown) [Example 32] belongs at least 50 µM; to `CN1CCCC(N(c2cnn(C)c2)S(=O)(=O)NC(=O)Cc2cc(Cl)cc(Cl)c2)C1` (stereo not shown) [Example 33], 10 to 50 µM. To `Cn1cc(N(CCCN)S(=O)(=O)NC(=O)Cc2c3c(cc4c2CCC4)CCC3)cn1` [Example 34] belongs at least 50 µM; to `CN1CCC[C@H]1CN(c1cnn(C)c1)S(=O)(=O)NC(=O)Cc1ccc(C(F)(F)F)cc1Cl` [Example 37], at least 50 µM.

For `CC(C)c1cc(CC(=O)NS(=O)(=O)N(CC2CCCO2)c2cnn(C)c2)cc(C(C)C)c1` (stereo not shown) [Example 38], the IC50 lay within 10 to 50 µM.

For `CC(C)c1cc(CC(=O)NS(=O)(=O)N(C[C@H]2C[C@@H](F)CN2C)c2cnn(C)c2)cc(C(C)C)c1` [Example 39], the IC50 is at least 50 µM. Consider `CC(C)c1cc(Cl)cc(C(C)C)c1CC(=O)NS(=O)(=O)N(C[C@@H]1CCCN1C)c1cnn(C)c1` [Example 40], for which the IC50 is at least 50 µM. In the case of `CC(C)c1cc(CC(=O)N=S(N)(=O)N(c2cnn(C)c2)C2CCCN(C)C2)cc(C(C)C)c1` (stereo not shown) [Example 41] it was 3 to 10 µM; in that of `Cc1ccc(C(C)C)cc1CC(=O)NS(=O)(=O)N(c1cnn(C)c1)C1CCCN(C)C1` (stereo not shown) [Example 48], at least 50 µM. In the case of `CN1CCCC(N(c2cnn(C)c2)S(=O)(=O)NC(=O)Cc2ccc3c(c2)C(C)(C)CO3)C1` (stereo not shown) [Example 49] it was at least 50 µM; in that of `CC(C)c1ccc(C(C)C)c(CC(=O)NS(=O)(=O)N(C[C@@H]2CCCN2C)c2cnn(C)c2)c1` [Example 50], at least 50 µM.

With `CN1CCC[C@H]1CN(c1cnn(C)c1)S(=O)(=O)NC(=O)Cc1cc(Cl)cc(OCC(F)(F)F)c1` [Example 51], the IC50 was at least 50 µM. Take `CN1CCC[C@H]1CN(c1cnn(C)c1)S(=O)(=O)NC(=O)Cc1cc(C(C)(C)C)cc(C(C)(C)C)c1` [Example 52]: the IC50 was at least 50 µM. To `CC(C)c1cccc(CC(=O)NS(=O)(=O)N(c2cnn(C)c2)C2CCCN(C)C2)c1` (stereo not shown) [Example 53] belongs at least 50 µM; to `CN1CCC[C@@H]1CN(c1cnn(C)c1)S(=O)(=O)NC(=O)Cc1cc(C(C)(C)C)cc(C(C)(C)C)c1` [Example 54], 10 to 50 µM.

Consider `CC(C)c1cc(CC(=O)NS(=O)(=O)N(C[C@@H]2CCCN2C)c2cnn(C)c2)cc(C(C)C)c1Cl` [Example 55], for which the IC50 is 10 to 50 µM.
